Reference: patent US11524938B2, “Aromatic sulfonamide derivatives” (Bayer Pharma Aktiengesellschaft, priority 2016, dated 2022)

Target: T1, human P2X4 (Homo sapiens, UniProt Q99571)
T1 sequence (Q99571 1-388): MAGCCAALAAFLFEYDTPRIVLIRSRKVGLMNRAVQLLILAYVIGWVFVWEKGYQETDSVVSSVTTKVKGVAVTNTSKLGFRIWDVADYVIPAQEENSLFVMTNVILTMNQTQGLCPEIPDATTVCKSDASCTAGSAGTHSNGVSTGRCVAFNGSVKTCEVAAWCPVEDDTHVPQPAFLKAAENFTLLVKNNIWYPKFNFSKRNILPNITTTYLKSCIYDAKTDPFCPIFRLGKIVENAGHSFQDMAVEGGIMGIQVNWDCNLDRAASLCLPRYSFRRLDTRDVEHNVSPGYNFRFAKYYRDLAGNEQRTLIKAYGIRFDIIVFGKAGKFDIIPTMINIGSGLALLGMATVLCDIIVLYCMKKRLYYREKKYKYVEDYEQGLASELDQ
Assay: Human P2X4 HEK Cell FLIPR Assay
Format: cell-based
Conditions: agonist Bz-ATP at EC80; for Emax: HEK293, HEK293 cells, percentage of maximal inhibition, read-out: Human P2X4 HEK Cells (FLIPR Assay) avg Efficacy [%]; for IC50: HEK293 cells, individual values listed where some fall outside detection range
Summary of the method: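 Calcium flux read by FLIPR for 120 sec after Bz-ATP challenge at EC80 (established each assay day), following 30 min room-temperature compound preincubation in dye-loaded stable human P2X4 HEK293 cells. Peak RFU over basal normalized to agonist control; IC50, maximal inhibition and Hill coefficient from triplicate means.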

| Emax [%] | IC50 [nM] | SMILES |
| --- | --- | --- |
| 76 | 621 | NS(=O)(=O)c1cc(NC(=O)Cc2ccc(C(F)(F)F)cc2)ccc1-c1cncc(C(F)(F)F)c1 [Example 446, N-{3-Sulfamoyl-4-[5-(trifluoromethyl)pyridin-3-yl]phenyl}-2-[4-(trifluoromethyl)phenyl]acetamide] |
| 68 | 1020 | NS(=O)(=O)c1cc(NC(=O)Cc2cccc(F)c2)ccc1-c1cncc(C(F)(F)F)c1 [Example 447, 2-(3-Fluorophenyl)-N-{3-sulfamoyl-4-[5-(trifluoromethyl)pyridin-3-yl]phenyl}acetamide] |
| 63 | 472 | NS(=O)(=O)c1cc(NC(=O)Cc2ccc(Cl)cc2Cl)ccc1-c1cncc(C(F)(F)F)c1 [Example 448, 2-(2,4-Dichlorophenyl)-N-{3-sulfamoyl-4-[5-(trifluoromethyl)pyridin-3-yl]phenyl}acetamide] |
| 73 | 135 | NS(=O)(=O)c1cc(NC(=O)Cc2ccccc2Br)ccc1-c1cncc(C(F)(F)F)c1 [Example 449, 2-(2-Bromophenyl)-N-{3-sulfamoyl-4-[5-(trifluoromethyl)pyridin-3-yl]phenyl}acetamide] |
| 72 | 148 | NS(=O)(=O)c1cc(NC(=O)Cc2ccc(F)cc2F)ccc1-c1cncc(C(F)(F)F)c1 [Example 450, 2-(2,4-Difluorophenyl)-N-{3-sulfamoyl-4-[5-(trifluoromethyl)pyridin-3-yl]phenyl}acetamide] |
| 86 | 244 | NS(=O)(=O)c1cc(NC(=O)Cc2ccc(F)c(F)c2)ccc1-c1cncc(C(F)(F)F)c1 [Example 451, 2-(3,4-Difluorophenyl)-N-{3-sulfamoyl-4-[5-(trifluoromethyl)pyridin-3-yl]phenyl}acetamide] |
| 65 | 76 | NS(=O)(=O)c1cc(NC(=O)Cc2cc(F)cc(F)c2)ccc1-c1cncc(C(F)(F)F)c1 [Example 452, 2-(3,5-Difluorophenyl)-N-{3-sulfamoyl-4-[5-(trifluoromethyl)pyridin-3-yl]phenyl}acetamide] |
| 77 | 74 | NS(=O)(=O)c1cc(NC(=O)Cc2cccc(Cl)c2)ccc1-c1cncc(C(F)(F)F)c1 [Example 453, 2-(3-Chlorophenyl)-N-{3-sulfamoyl-4-[5-(trifluoromethyl)pyridin-3-yl]phenyl}acetamide] |
| 58 | 1440 | Cc1ccc(CC(=O)Nc2ccc(-c3cncc(C(F)(F)F)c3)c(S(N)(=O)=O)c2)cc1 [Example 454, 2-(4-Methylphenyl)-N-{3-sulfamoyl-4-[5-(trifluoromethyl)pyridin-3-yl]phenyl}acetamide] |
| 74 | 5 | COc1ccc(CC(=O)Nc2ccc(-c3cncc(C(F)(F)F)c3)c(S(N)(=O)=O)c2)cc1 [Example 455, 2-(4-Methoxyphenyl)-N-{3-sulfamoyl-4-[5-(trifluoromethyl)pyridin-3-yl]phenyl}acetamide] |
| 59 | 18 | Cc1ccc(CC(=O)Nc2ccc(-c3cncc(C(F)(F)F)c3)c(S(N)(=O)=O)c2)c(F)c1 [Example 456, 2-(2-Fluoro-4-methylphenyl)-N-{3-sulfamoyl-4-[5-(trifluoromethyl)pyridin-3-yl]phenyl}acetamide] |
| 70 | 558 | COc1ccc(CC(=O)Nc2ccc(-c3cncc(C(F)(F)F)c3)c(S(N)(=O)=O)c2)c(F)c1 [Example 457, 2-(2-Fluoro-4-methoxyphenyl)-N-{3-sulfamoyl-4-[5-(trifluoromethyl)pyridin-3-yl]phenyl}acetamide] |
| 85 | 1080 | NS(=O)(=O)c1cc(NC(=O)Cc2ccc(C(F)F)cc2)ccc1-c1cncc(C(F)(F)F)c1 [Example 458, 2-[4-(Difluoromethyl)phenyl]-N-{3-sulfamoyl-4-[5-(trifluoromethyl)pyridin-3-yl]phenyl}acetamide] |
| 88 | 1340 | NS(=O)(=O)c1cc(NC(=O)Cc2ccc(Cl)cc2)ccc1-c1ccc(Cl)nc1 [Example 459, 2-(4-Chlorophenyl)-N-[4-(6-chloropyridin-3-yl)-3-sulfamoylphenyl]acetamide] |
| 84 | 646 | NS(=O)(=O)c1cc(NC(=O)Cc2ccccc2F)ccc1-c1ccc(Cl)nc1 [Example 460, N-[4-(6-Chloropyridin-3-yl)-3-sulfamoylphenyl]-2-(2-fluorophenyl)acetamide] |
| 93 | 137 | NS(=O)(=O)c1cc(NC(=O)Cc2c(F)cccc2Cl)ccc1-c1ccc(Cl)nc1 [Example 461, 2-(2-Chloro-6-fluorophenyl)-N-[4-(6-chloropyridin-3-yl)-3-sulfamoylphenyl]acetamide] |
| 89 | 929 | NS(=O)(=O)c1cc(NC(=O)Cc2ccc(C(F)(F)F)cc2)ccc1-c1ccc(Cl)nc1 [Example 462, N-[4-(6-Chloropyridin-3-yl)-3-sulfamoylphenyl]-2-[4-(trifluoromethyl)phenyl]acetamide] |
| 99 | 18 | NS(=O)(=O)c1cc(NC(=O)Cc2ccccc2C(F)(F)F)ccc1-c1ccc(Cl)nc1 [Example 463, N-[4-(6-Chloropyridin-3-yl)-3-sulfamoylphenyl]-2-[2-(trifluoromethyl)phenyl]acetamide] |
| 92 | 648 | NS(=O)(=O)c1cc(NC(=O)Cc2cccc(F)c2)ccc1-c1ccc(Cl)nc1 [Example 464, N-[4-(6-Chloropyridin-3-yl)-3-sulfamoylphenyl]-2-(3-fluorophenyl)acetamide] |
| 92 | 26 | NS(=O)(=O)c1cc(NC(=O)Cc2ccc(Cl)cc2Cl)ccc1-c1ccc(Cl)nc1 [Example 465, N-[4-(6-Chloropyridin-3-yl)-3-sulfamoylphenyl]-2-(2,4-dichlorophenyl)acetamide] |
| 91 | 363 | NS(=O)(=O)c1cc(NC(=O)Cc2ccc(F)cc2F)ccc1-c1ccc(Cl)nc1 [Example 466, N-[4-(6-Chloropyridin-3-yl)-3-sulfamoylphenyl]-2-(2,4-difluorophenyl)acetamide] |
| 93 | 9 | NS(=O)(=O)c1cc(NC(=O)Cc2ccccc2Br)ccc1-c1ccc(Cl)nc1 [Example 467, 2-(2-Bromophenyl)-N-[4-(6-chloropyridin-3-yl)-3-sulfamoylphenyl]acetamide] |
| 97 | 278 | NS(=O)(=O)c1cc(NC(=O)Cc2ccc(F)c(F)c2)ccc1-c1ccc(Cl)nc1 [Example 468, N-[4-(6-Chloropyridin-3-yl)-3-sulfamoylphenyl]-2-(3,4-difluorophenyl)acetamide] |
| 90 | 453 | Cc1ccc(CC(=O)Nc2ccc(-c3ccc(Cl)nc3)c(S(N)(=O)=O)c2)cc1 [Example 469, N-[4-(6-Chloropyridin-3-yl)-3-sulfamoylphenyl]-2-(4-methylphenyl)acetamide] |
| 93 | 483 | COc1ccc(CC(=O)Nc2ccc(-c3ccc(Cl)nc3)c(S(N)(=O)=O)c2)cc1 [Example 470, N-[4-(6-Chloropyridin-3-yl)-3-sulfamoylphenyl]-2-(4-methoxyphenyl)acetamide] |
| 92 | 269 | Cc1ccc(CC(=O)Nc2ccc(-c3ccc(Cl)nc3)c(S(N)(=O)=O)c2)c(F)c1 [Example 471, N-[4-(6-Chloropyridin-3-yl)-3-sulfamoylphenyl]-2-(2-fluoro-4-methylphenyl)acetamide] |
